Experiment [1] addresses T1, CDK6/Cyclin D1 (Homo sapiens (Human), UniProt Q00534). Conditions: read-out: CDK6_Ki; non-phosphorylated CDK6/Cyclin D1, 2 mM ATP.
In experiment [2] the target is T1, CDK6/Cyclin D1. Kind of experiment: biochemical.
In experiment [3] the test system is HCC1806 mouse tumor xenograft. Nature of the experiment: HCC1806 tumor model (mouse xenograft). Format: in vivo. The settings on record: NU/NU female mice; 30, 50 and 75 mpk PO BID, 14 days. The protocol: • Source: HCC1806 (# CRL 2335, ATCC, Manassas, Va.)
The HCC1806 tumor cell line was cultured in RPMI1640 media supplemented with 10% Fetal Bovine Serum (FBS). To establish a HCC1806 xenograft model, 5×10^6 cells per mouse were implanted subcutaneously into right hind flank NU/NU female mice. Cells were suspended in 50% Cultrex Basement Membrane Extract and 50% RPMI 1640 media serum free media prior to implantation.
Animals were randomized 7 days after cells implantation with each group consisting of 13 mice. Treatment began when tumors reached 100 mm^3 to 170 mm^3 in size on Day 7. Test compounds were prepared in 0.1% Tween, 0.5% Methyl cellulose in water and dosed PO at 30, 50, and 75 mg/kg as a suspension BID for 14 days. Mice receiving no drugs were given vehicle BID for 14 days. Tumor volumes were measured twice a week with an electric caliper, with tumor volumes calculated using Length×Width×Width/2 formula. Animal weights were recorded twice weekly.

The test system of experiment [4] is OVCAR3 mouse tumor xenograft. Kind of experiment: Ovcar3 tumor model (mouse xenograft). Format: in vivo. The settings on record: NSG mice; 10 mpk PO QD, 50 mpk PO QD and 50 mpk PO BID, 14 days. The protocol:
Ovcar3 tumor cell line, purchased from ATCC (ATCC HTB-161™) was cultured in RPMI1640 (1×) media (Gibco™ cat #11875-093) with 10% FBS (Gibco™ cat #26140-079). To establish a Ovcar3 xenograft model, 5×10^6 cells per mouse was implanted subcutaneously into right hind flank NSG mice (#5557-NOD.cg-PrkdcJackson Lab). Cells were suspended in 50% matrigel (Cultrex Basement Membrane Extract (BME), Trevigen's Basement Membrane Matrix) and 50% RPMI1640 (1×) media (Gibco™ cat #11875-093) serum free media prior to implantation.
Animals were randomized 39 days after cells implantation with each group consisted of 4 mice. Treatment began when tumors reached 100 mm^3-190 mm^3 in size. Test compounds were prepared in 40% Captisol and dosed PO at 10 and 50 mg/kg QD or at 50 mg/kg BID as a suspension for 14 days. Animals were taken down at designated time. Mice receiving no drugs were given vehicle QD or BID for 14 days. Tumor volumes were measured once prior to randomization with an electric caliper, with tumor volumes were calculated using Length×Width×Width/2 formulation. Tumor volumes were measured twice a week with an electric caliper, with tumor volumes calculated using Length×Width×Width/2 formula. Animal weights were recorded twice weekly.

The target of another experiment is CDK2/Cyclin E1 (Homo sapiens (Human), UniProt P24941). Kind of experiment: biochemical.

Where two headings read alike, the source gives them in different places.

T1 sequence (Q00534 whole entry): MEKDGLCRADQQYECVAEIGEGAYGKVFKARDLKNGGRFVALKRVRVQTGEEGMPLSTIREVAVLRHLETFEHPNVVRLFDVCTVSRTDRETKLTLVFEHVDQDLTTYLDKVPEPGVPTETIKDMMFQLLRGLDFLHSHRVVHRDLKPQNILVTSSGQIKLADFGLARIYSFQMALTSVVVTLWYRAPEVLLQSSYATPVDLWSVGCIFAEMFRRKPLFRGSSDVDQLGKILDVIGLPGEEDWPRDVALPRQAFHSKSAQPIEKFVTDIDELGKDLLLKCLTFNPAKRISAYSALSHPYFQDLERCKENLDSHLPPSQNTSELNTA
T1 sequence (P24385 whole entry partner): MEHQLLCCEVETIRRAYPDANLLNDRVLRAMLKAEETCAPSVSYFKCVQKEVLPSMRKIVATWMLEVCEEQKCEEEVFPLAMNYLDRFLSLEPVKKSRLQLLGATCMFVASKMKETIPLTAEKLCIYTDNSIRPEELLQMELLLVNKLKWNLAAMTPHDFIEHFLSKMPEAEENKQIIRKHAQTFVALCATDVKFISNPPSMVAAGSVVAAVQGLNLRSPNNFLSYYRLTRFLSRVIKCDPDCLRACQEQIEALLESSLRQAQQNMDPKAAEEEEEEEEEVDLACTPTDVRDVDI
Protocol for CDK2/Cyclin E1: The assay was initiated with the addition of ATP, following a fifteen minutes pre-incubation of enzyme and inhibitor at room temperature in the reaction mixture. The reaction was stopped after 45 minutes at room temperature by the addition of 50 μL of 80 mM EDTA, pH 7.5.

Turning to `C[C@@]1(O)CCC[C@H]1n1c(=O)ccc2cnc(NC3CCN(S(=O)(=O)C4CCS(=O)(=O)C4)CC3)nc21` (single isomer, unassigned) [Example 71], the Ki on CDK6/Cyclin D1 [1] was determined as 1.55 nM.

As to `C[C@@]1(O)CCC[C@H]1n1c(=O)ccc2cnc(NC3CCN(S(=O)(=O)NC[C@@H]4CCCO4)CC3)nc21` (stereo in doubt) [Example 62], the Ki at CDK6/Cyclin D1 [2] was 5.69 nM. The same measure, in the same setting: in the case of `C[C@]1(O)CCC[C@@H]1n1c(=O)ccc2cnc(NC3CCN(S(=O)(=O)NC[C@@H]4CCCO4)CC3)nc21` (stereo in doubt) [Example 63] it was 16.5 nM.

`C[C@@]1(O)CCC[C@H]1n1c(=O)ccc2cnc(NC3CCN(S(=O)(=O)NC[C@H]4CCCO4)CC3)nc21` (stereo in doubt) [Example 64] returned a Ki at CDK6/Cyclin D1 [2] of 4.69 nM. The compound `C[C@]1(O)CCC[C@@H]1n1c(=O)ccc2cnc(NC3CCN(S(=O)(=O)NC[C@H]4CCCO4)CC3)nc21` (stereo in doubt) [Example 65] had a Ki at CDK6/Cyclin D1 [2] of 25.6 nM. On the same count and under the same terms, the result for `Cc1cc2cnc(NC3CCN(S(=O)(=O)NC[C@@H]4CCCO4)CC3)nc2n([C@@H]2CCC[C@@]2(C)O)c1=O` (stereo in doubt) [Example 100] reads 1.07 nM; that for `Cc1cc2cnc(NC3CCN(S(=O)(=O)NC[C@@H]4CCCO4)CC3)nc2n([C@H]2CCC[C@]2(C)O)c1=O` (stereo in doubt) [Example 101], 23.5 nM; that for `Cc1cc2cnc(NC3CCN(S(=O)(=O)NC[C@H]4CCCO4)CC3)nc2n([C@@H]2CCC[C@@]2(C)O)c1=O` (stereo in doubt) [Example 102], 0.8 nM. Same read-out and setting: in the case of `Cc1cc2cnc(NC3CCN(S(=O)(=O)NC[C@H]4CCCO4)CC3)nc2n([C@H]2CCC[C@]2(C)O)c1=O` (stereo in doubt) [Example 103] it was 19.6 nM.

For `C[C@@]1(O)CCC[C@H]1n1c(=O)ccc2cnc(NC3CCN(S(C)(=O)=O)CC3)nc21` [Example 2, 8-[(1R,2R)-2-hydroxy-2-methylcyclopentyl]-2-{[1-(methylsulfonyl)piperidin-4-yl]amino}pyrido[2,3-d]pyrimidin-7(8H)-one], the “inhibition of tumor growth (mm^3)” value in experiment [3] and in experiment [4] was “dose dependent inhibition of tumor growth” throughout. At CDK2/Cyclin E1, `CNS(=O)(=O)N1CCC(Nc2ncc3ccc(=O)n([C@@H]4CCC[C@H]4O)c3n2)CC1` [Example 55] had a Ki of 4.66 nM.

Source of the values: patent US10800783B2, “CDK2/4/6 inhibitors” (Pfizer Inc., priority 2016, dated 2020).
